Assay results from US20100093795A1, “Piperidine Derivative Used for Treating Chemokine Receptor 5 Mediated Diseases” (priority 2006, published 2010).

Experiment: Rat pharmacokinetics after intravenous and oral dosing (Example 3)
Type: in vivo
Conditions: Alderley Park Han Wistar; male rat (Han Wistar), oral 2 mg/kg vs intravenous 2 mg/kg, whole blood; read-out: F (bioavailability)
Experimental: The rat pharmacokinetic (PK) parameters blood clearance (CL), volume of distribution (Vdss) and half life (t½) are calculated by determining the concentration (exposure) of test compound in whole blood samples taken from rats at various, defined time points subsequent to the intra-venous dosing (administration) of formulated test compound. The rat PK parameter bioavailability (F) is calculated by determining the concentration (exposure) of test compound in whole blood samples taken from rats at various, defined time-points subsequent to the oral dosing (administration) of formulated test compound and then by comparison of the ratio of the dose normalized total oral exposure (AUCpo) with the dose normalized total intra-venous exposure (AUCiv). Fraction absorbed (Fabs) is a secondary PK parameter that is often calculated from a knowledge of the clearance (CL) and bioavailability (F) of a test compound. […]
Calibration standard samples are prepared by addition of known amounts of test compound to blank diluted (1:1) blood samples. […] Following centrifugation, sample and calibration standard supernatants are analysed for test compound concentration by HPLC with MS/MS (triple quad mass spectrometry) detection. Quantification of test compound concentrations in the blood samples taken from the rats is achieved by reference to a standard curve constructed from the calibration standard samples. […]

| bioavailability [%] | SMILES |
| --- | --- |
| 28 | CCc1nnc(C(C)C)n1C1CCN([C@H](C)C[C@@H](c2cc(F)cc(F)c2)C2CCN(S(C)(=O)=O)CC2)CC1 (single isomer, unassigned) |
| 1 | Cc1nnc(C(C)C)n1C1CCN(C(C)C[C@@H](c2cc(F)cc(F)c2)C2CCN(S(C)(=O)=O)CC2)CC1 (single isomer, unassigned) [Comparator Compound A] |
